For experiment [1], the system named is guinea pig ileum (opiate receptor site). Description: Guinea pig ileum (GPI) assay for enkephalin activity, electrically stimulated contractions. To be noted: specificity controls; FIGS. 6-9.
A further experiment concerns Serum TSH level. Description: 6 Point Parallel Line Assay, serum TSH level after inhibitor then TRH. The experiment is classed as in vivo. To be noted: no inhibitor (saline injected). As for the experimental part:
(§1) 6 Point Parallel Line Assay Design:
(§2) 3 sample, 3 standard samples
(§3) Responses expressed in (Ng/ml)
(§4) Animals challenged with peptide derivative dissolved in 0.85% NaCl.
(§5) Total Injection Volume: 0.25 ml
(§6) Anatomical Site of Injection: Jugular vein
(§7) Samples obtained by subjecting animal to ether anesthesia, and sacrificing animal.
(§8) Each animal was injected via jugular vein 0.25 ml of peptide derivative: to insure sample was injected into vein, the syringe plunger was gently retracted, if blood could be withdrawn, then the sample was injected. Following injection, the syringe was rinsed with blood and injected. 1/2-hour following injection of the peptide derivative, using the same procedure, a TRH dose-response curve was made using the same injection technique.
(§9) 0 time--injection of TRH derivative (80 ugm)
(§10) 1/2 hr.--injection of TRH (4, 40, and 80 ugm)
(§11) 1 hrs.--blood sample collected

Experiment [2] concerns TRH-Induced Release of Radioactive (125I) Iodide from the Thyroid. Description: McKenzie Bioassay for TRH-Induced Release of Radioactive (125I) Iodide from the Thyroid. To be noted: worked Example; for (I-125) cpm/200 ul blood at THR: tail vein; for Δ cpm: net of saline control. The format is in vivo, Long-Evans male rats. As for the experimental part: 16 Long-Evans male rats were maintained on an iodine deficient diet for 1 week. Each rat was then injected intraperitoneally (i.p.) with 20 μCi of radioactive (Na^125 I). Six hours before injection of the material to be tested, the animals were given 0.03% propylthioluracil (PTU) in their drinking water. This prevents the re-uptake of released ^125 I (iodoproteins such as mono- and diodo-tyrosines, T3 or T4) once they are released from the thyroid under the influence of TRH or TRH analogue. 24 hrs. after administration of the radioactive iodine (0.2 ml) 200 μl of blood was withdrawn from the tail vein of each rat, transferred quantitatively into a 12×75 mm test tube containing 1 ml of 0.9% saline and the ^125 I content counted by use of a Beckmann γ-ray spectrometer. One ml of TRH or TRH analogue dissolved in 0.9% NaCl (physiologic saline) was injected into the tail vein of each of four rats per dose considered (e.g. 0.4 μgm, 40 μgm, 80 μgm). 1 ml of 0.9% NaCl (physiologic saline) was injected also to each of four rats to serve as a control for stress-related influence (trauma from blood collecting procedure and anesthesia) on release of ^125 I from the thyroid gland. Once the saline control or designated dose of TRH or TRH analogue has been injected, blood samples (0.2 ml) are collected from the tail vein of each rat at 30 minutes, 1 hr, 2 hrs, and 3 hrs. and the ^125 I content evaluated as described above. Upon completion of the experiment, animals are kept for a 24 hr time period to observe any adverse toxicological effects. If they maintain their usual behavior (vital signs), it is assumed the compounds tested cause no overt physiological effects.
An increase in I-125 content above the basal level, as exemplified by the saline control, indicates a TRH induced release of TSH (thyrotropin stimulating hormone) which in turn causes release of I-125 from the thyroid. This type of response means the […] hormone physiologic mechanism (hypothalamo-pituitary-thyroid axis) is working properly, and the animals are suitable for testing. […] For each dose level considered, the radio-activity content of I-125 (cpm) per 200 μl of blood is evaluated at each time period and subtracted from the saline control radioactivity (I-125) content to obtain the Δ cpm released from thyroid. The net cpm released is therefore evaluated, rather than the absolute radio-activity for each time period and dose level.
To evaluate the effect of TRH analogues (TRH-CMK or TRH-DMK) on the TRH-TSH release of I-125 from the thyroid, each animal of a test group (4 animals) was injected with 1 ml of a given dose of the TRH analogue into the tail vein. […] Blood samples (0.2 ml) were then collected at various times (e.g. 1/2, 1 hr, 2 hrs, etc.) and evaluated for their I-125 content. […]

The subject of another experiment is Serum Prolactin Level. The experiment can be described thus: 6 Point Parallel Line Assay, serum prolactin level after inhibitor then TRH. The experiment is classed as in vivo. To be noted: no inhibitor (saline injected). As for the experimental part: as §1, §2, §3, §4, §5, §6, §7, §8, §9, §10, §11

“N-tosyl-phenylalanine chloromethyl ketone”: the “whether it effects a response on the GPI (neither = no response)” value in experiment [1] was “neither”.

For `NC(=O)[C@@H]1CCCN1C(=O)[C@H](Cc1c[nH]cn1)NC(=O)[C@@H]1CCC(=O)N1` [TRH, L-pyroglutamyl-L-histidyl-L-prolinamide], the “Serum TSH level” value in the experiment on Serum TSH level (FIRST EXPERIMENT, TRH 4 μg) is 312 ng/mL; in the experiment with Serum TSH level (FIRST EXPERIMENT, TRH 40 μg), 412 ng/mL; with Serum TSH level (FIRST EXPERIMENT, TRH 80 μg), 1139 ng/mL; in the experiment on Serum TSH level (SECOND EXPERIMENT, TRH 4 μg), 167 ng/mL; in the experiment on Serum TSH level (SECOND EXPERIMENT, TRH 40 μg), 612 ng/mL; in the experiment with Serum TSH level (SECOND EXPERIMENT, TRH 80 μg), 839 ng/mL. Also, the “(I-125) cpm/200 ul blood at THR” value in experiment [2] (0.4 μgm TRH) turned out to be 261 cpm/200 ul; in experiment [2] (4 μgm TRH), 358 cpm/200 ul. In addition, the Δ cpm result in experiment [2] (0.4 μgm TRH) is “+141 cpm”; in experiment [2] (4 μgm TRH) it was “+238 cpm”. Further, the “Serum Prolactin Level” value was 61 ng/mL with Serum Prolactin Level (FIRST EXPERIMENT, TRH 4 μg); 76 ng/mL with Serum Prolactin Level (FIRST EXPERIMENT, TRH 40 μg); 216 ng/mL with Serum Prolactin Level (FIRST EXPERIMENT, TRH 80 μg); 46 ng/mL in the experiment with Serum Prolactin Level (SECOND EXPERIMENT, TRH 4 μg); 150 ng/mL with Serum Prolactin Level (SECOND EXPERIMENT, TRH 40 μg); 181 ng/mL in the experiment with Serum Prolactin Level (SECOND EXPERIMENT, TRH 80 μg).
